Where a name gives a salt, the structure may show the parent alone.
Tests used:
[1] = target: T1, Adrenergic β2 (H292 cells) (Homo sapiens, UniProt P07550); experiment: Assay for Adrenergic β2 Mediated cAMP Production (concentration response, AlphaScreen cAMP detection); assay type: cell-based; conditions: for EC50: cAMP production, 60 minutes at room temperature, 300 μM rolipram, read-out: β2 pEC50 (converted); for β2 Intrinsic activity: fraction relative to the maximum activity determined for formoterol
T1 construct: endogenous in cells; host or cells: H292 cells
How it was run: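 Intrinsic activity is relative to the per-experiment formoterol maximum, with pEC50 from a four-parameter logistic fit of cAMP levels quantified by AlphaScreen against standards. Cells (H292) got 300 μM rolipram for 10 min, then compound for 60 min at room temperature, 1% DMSO final.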

[2] = target: T2, human muscarinic acetylcholine M3 receptor (M3-ACh) (Homo sapiens, UniProt P20309); experiment: Muscarinic 3 Receptor Binding Assay ([3H]NMS competition, SPA); conditions: [3H]NMS 0.1 nM, CHO-K1 cell membranes, 16 hours at room temperature; read-out: M3 pIC50 (converted)
T2 construct: expressed in transfected cells; host or cells: CHO-K1 (Chinese Hamster Ovary) cell membranes
How it was run: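 Competition SPA binding of 0.1 nM [3H]NMS (quarter Kd) to membranes from CHO-K1 cells expressing human M3, in 20 mM HEPES pH 7.4, 5 mM MgCl2, 1% DMSO. Incubated 16 h at room temperature; non-specific binding with 1 µM atropine. pIC50 from 50% reduction of specific binding.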

T2 sequence (P20309 whole entry): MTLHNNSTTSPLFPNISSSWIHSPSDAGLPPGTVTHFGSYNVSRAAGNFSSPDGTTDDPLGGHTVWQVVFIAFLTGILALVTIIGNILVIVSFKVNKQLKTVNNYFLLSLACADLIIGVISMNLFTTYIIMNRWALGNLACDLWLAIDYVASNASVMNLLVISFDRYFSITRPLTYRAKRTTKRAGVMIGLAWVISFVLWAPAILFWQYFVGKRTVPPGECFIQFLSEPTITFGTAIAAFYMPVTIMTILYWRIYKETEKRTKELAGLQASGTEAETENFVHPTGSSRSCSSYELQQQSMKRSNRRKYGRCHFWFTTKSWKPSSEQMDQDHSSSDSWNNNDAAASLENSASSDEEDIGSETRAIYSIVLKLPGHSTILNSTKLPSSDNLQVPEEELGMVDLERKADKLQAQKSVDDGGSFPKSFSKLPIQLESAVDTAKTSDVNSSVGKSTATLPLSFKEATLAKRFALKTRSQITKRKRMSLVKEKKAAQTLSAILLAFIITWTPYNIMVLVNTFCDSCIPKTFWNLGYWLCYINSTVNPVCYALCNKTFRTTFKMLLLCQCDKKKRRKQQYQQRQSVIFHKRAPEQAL
T1 sequence (P07550 whole entry): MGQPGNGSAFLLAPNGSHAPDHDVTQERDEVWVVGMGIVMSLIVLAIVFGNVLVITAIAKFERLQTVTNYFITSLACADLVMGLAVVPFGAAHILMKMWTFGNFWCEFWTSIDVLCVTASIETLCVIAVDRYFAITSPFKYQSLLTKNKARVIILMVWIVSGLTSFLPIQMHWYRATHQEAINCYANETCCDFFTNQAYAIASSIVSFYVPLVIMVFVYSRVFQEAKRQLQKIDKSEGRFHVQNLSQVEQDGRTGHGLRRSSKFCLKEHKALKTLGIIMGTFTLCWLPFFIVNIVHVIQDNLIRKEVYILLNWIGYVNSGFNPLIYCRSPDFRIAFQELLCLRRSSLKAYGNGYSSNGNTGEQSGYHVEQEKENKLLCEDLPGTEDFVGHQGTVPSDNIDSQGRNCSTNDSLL

| EC50 [1] [nM] | β2 Intrinsic activity [1] | IC50 [2] [nM] | Compound |
| --- | --- | --- | --- |
| 2.51 | 0.9 | 1.26 | Cc1ccc(C(=O)N2CCOC3(CCN(Cc4cccc(CCNC[C@H](O)c5ccc(O)c6[nH]c(=O)sc56)c4)CC3)C2)s1 [Example 15, (R)-4-Hydroxy-7-(1-hydroxy-2-(3-((4-(5-methylthiophene-2-carbonyl)-1-oxa-4,9-diazaspiro[5.5]undecan-9-yl)methyl)phenethylamino)ethyl)benzo[d]thiazol-2(3H)-one trifluoroacetate] |
| 6.31 | 1.1 | 126 | O=C(c1csc(-c2ccccc2)n1)N1CCOC2(CCN(Cc3cc(F)cc(CCNC[C@H](O)c4ccc(O)c5[nH]c(=O)sc45)c3)CC2)C1 [Example 41, (R)-7-(2-(3-Fluoro-5-((4-(2-phenylthiazole-4-carbonyl)-1-oxa-4,9-diazaspiro[5.5]undecan-9-yl)methyl)phenethylamino)-1-hydroxyethyl)-4-hydroxybenzo[d]thiazol-2(3H)-one ditrifluoroacetate] |
| 31.6 | 0.8 | 1.58 | CC(C)c1nc(C(=O)N2CCOC3(CCN(CCCSCCCCNC[C@H](O)c4ccc(O)c5[nH]c(=O)sc45)CC3)C2)cs1 [Example 281, (R)-4-Hydroxy-7-(1-hydroxy-2-(4-(3-(4-(2-isopropylthiazole-4-carbonyl)-1-oxa-4,9-diazaspiro[5.5]undecan-9-yl)propylthio)butylamino)ethyl)benzo[d]thiazol-2(3H)-one formate] |
| 15.8 | 0.9 | 20 | Cc1sc(C(C)C)nc1C(=O)N1CCOC2(CCN(Cc3cccc(CCNC[C@H](O)c4ccc(O)c5[nH]c(=O)sc45)c3F)CC2)C1 [Example 69, (R)-7-(2-(2-Fluoro-3-((4-(2-isopropyl-5-methylthiazole-4-carbonyl)-1-oxa-4,9-diazaspiro[5.5]undecan-9-yl)methyl)phenethylamino)-1-hydroxyethyl)-4-hydroxybenzo[d]thiazol-2(3H)-one ditrifluoroacetate] |
| 5.01 | 0.8 | 39.8 | CC(C)(C)c1nc(C(=O)N2CCOC3(CCN(Cc4cc(CCNC[C@H](O)c5ccc(O)c6[nH]c(=O)sc56)cs4)CC3)C2)cs1 [Example 43, (R)-7-(2-(2-(5-((4-(2-tert-Butylthiazole-4-carbonyl)-1-oxa-4,9-diazaspiro[5.5]undecan-9-yl)methyl)thiophen-3-yl)ethylamino)-1-hydroxyethyl)-4-hydroxybenzo[d]thiazol-2(3H)-one ditrifluoroacetate] |
| 126 | 0.9 | 3.98 | CC(C)c1nc(C(=O)N2CCOC3(CCN(CCOc4ccc(CNC[C@H](O)c5ccc(O)c6[nH]c(=O)sc56)cc4)CC3)C2)cs1 [Example 108, (R)-4-Hydroxy-7-(1-hydroxy-2-(4-(2-(4-(2-isopropylthiazole-4-carbonyl)-1-oxa-4,9-diazaspiro[5.5]undecan-9-yl)ethoxy)benzylamino)ethyl)benzo[d]thiazol-2(3H)-one formate] |

The remaining lines, values behind:

| Compound | EC50 [1] [nM] | β2 Intrinsic activity [1] | IC50 [2] [nM] |
| --- | --- | --- | --- |
| Cc1nc(C(=O)N2CCOC3(CCN(Cc4cccc(CCNCC(O)c5ccc(O)c6c5OCC(=O)N6)c4)CC3)C2)cs1 (single isomer, unassigned; isomer 1) [Example 11, 5-Hydroxy-8-(1-hydroxy-2-(3-((4-(2-methylthiazole-4-carbonyl)-1-oxa-4,9-diazaspiro[5.5]undecan-9-yl)methyl)phenethylamino)ethyl)-2H-benzo[b][1,4]oxazin-3(4H)-one ditrifluoroacetate, Isomer 1] | 1.58 | 0.8 | 0.1 |
| CC(C)c1nc(C(=O)N2CCOC3(CCN(CCCCCCCC(C)(C)CNC[C@H](O)c4ccc(O)c5[nH]c(=O)sc45)CC3)C2)cs1 [Example 103, (R)-4-Hydroxy-7-(1-hydroxy-2-(9-(4-(2-isopropylthiazole-4-carbonyl)-1-oxa-4,9-diazaspiro[5.5]undecan-9-yl)-2,2-dimethylnonylamino)ethyl)benzo[d]thiazol-2(3H)-one formate] | 251 | 1 | 1 |
| CC(C)c1nc(C(=O)N2CCOC3(CCN(CCCCCCC(C)(C)CCNC[C@H](O)c4ccc(O)c5[nH]c(=O)sc45)CC3)C2)cs1 [Example 279, (R)-4-Hydroxy-7-(1-hydroxy-2-(9-(4-(2-isopropylthiazole-4-carbonyl)-1-oxa-4,9-diazaspiro[5.5]undecan-9-yl)-3,3-dimethylnonylamino)ethyl)benzo[d]thiazol-2(3H)-one formate] | 316 | 0.9 | 7.94 |
| CC(C)c1cc(C(=O)N2CCOC3(CCN(Cc4cccc(C[C@@H](C)NC[C@H](O)c5ccc(O)c6[nH]c(=O)ccc56)c4)CC3)C2)cs1 [Example 276, 8-Hydroxy-5-((R)-1-hydroxy-2-((R)-1-(3-((4-(5-isopropylthiophene-3-carbonyl)-1-oxa-4,9-diazaspiro[5.5]undecan-9-yl)methyl)phenyl)propan-2-ylamino)ethyl)quinolin-2(1H)-one ditrifluoroacetate] | 39.8 | 1 | 2 |
| CCC(CC)c1nc(C(=O)N2CCOC3(CCN(Cc4cccc(CCNC[C@H](O)c5ccc(O)c6[nH]c(=O)ccc56)c4)CC3)C2)cs1 [Example 274, (R)-8-Hydroxy-5-(1-hydroxy-2-(3-((4-(2-(pentan-3-yl)thiazole-4-carbonyl)-1-oxa-4,9-diazaspiro[5.5]undecan-9-yl)methyl)phenethylamino)ethyl)quinolin-2(1H)-one ditrifluoroacetate] | 25.1 | 1.0 | 2.51 |
| Cc1nc(C(=O)N2CCOC3(CCN(CCOc4cc(C)c(CNC[C@H](O)c5ccc(O)c6[nH]c(=O)ccc56)cc4C)CC3)C2)cs1 [Example 97, (R)-5-(2-(2,5-Dimethyl-4-(2-(4-(2-methylthiazole-4-carbonyl)-1-oxa-4,9-diazaspiro[5.5]undecan-9-yl)ethoxy)benzylamino)-1-hydroxyethyl)-8-hydroxyquinolin-2(1H)-one ditrifluoroacetate] | > 3160 | 1.5 | 6.31 |
| Cc1cc(C(=O)N2CCOC3(CCN(CCOc4ccc(CNC[C@H](O)c5ccc(O)c6[nH]c(=O)sc56)cc4)CC3)C2)cs1 [Example 104, (R)-4-Hydroxy-7-(1-hydroxy-2-(4-(2-(4-(5-methylthiophene-3-carbonyl)-1-oxa-4,9-diazaspiro[5.5]undecan-9-yl)ethoxy)benzylamino)ethyl)benzo[d]thiazol-2(3H)-one formate] | 79.4 | 0.9 | 3.16 |
| CC(CCCCCCCN1CCC2(CC1)CN(C(=O)c1csc(C(C)C)n1)CCO2)CNC[C@H](O)c1ccc(O)c2[nH]c(=O)sc12 (stereo partly drawn) [Example 283, 4-Hydroxy-7-((1R)-1-hydroxy-2-(9-(4-(2-isopropylthiazole-4-carbonyl)-1-oxa-4,9-diazaspiro[5.5]undecan-9-yl)-2-methylnonylamino)ethyl)benzo[d]thiazol-2(3H)-one formate] | 79.4 | 1.1 | 1.26 |
